In patent US9266939B2, “Compositions comprising natriuretic peptides and methods of use thereof” (Alexion Pharmaceuticals, Inc., priority 2010, dated 2016):
Marks after values point to notes of the source that are not given here.

Experiments:
Fgfr3^369/+ mice = assay: Efficacy of SC NC2st on rescue of the ACH bone phenotype in Fgfr3^369/+ mice; assay type: in vivo; settings: 61 days
From the text: The study was designed to evaluate the effect of daily subcutaneous (SC) administration of NC2 Streptag (NC2st) on rescue of the achondroplasia skeletal disorders in the mouse model of the disease, the Fgfr3^369/+ mice.
Fgfr3^369/+ mice were created by an amino acid substitution (Gly to Cys) at position 369 in the mouse Fibroblast Growth Factor Receptor 3 (Fgfr3) gene (Chen et al., J. Clin. Invest. 104(11): 1517-1525, 1999). Substitution 369 (Gly369Cys) in mouse Fgfr3 gene causes dwarfism with features mimicking human achondroplasia. […] Thus, the Fgfr3^369+ mouse is an appropriate model for non-clinical studies evaluating the treatment of achondroplasia.
The study was an open label parallel and randomized control study. Treatments were open label, and Table 5 provides details of the treatment groups.
Injections were scheduled twice daily at approximately 8:00 to 10:00 AM and 8:00 to 10:00 PM. The dose volume was set at 4 ml/kg. The actual volume administered to each mouse was calculated and adjusted based on the daily body weight of each animal measured prior to the AM injection. Vehicle or NC2st was injected SC twice daily into the scapular or lumbar region of Fgfr3^369/+ animals from the third day after birth to 63 days of age.
Ex vivo radiographs of whole body, rib cage and skull were taken using a Faxitron model MX-20 DC4 under constant conditions (26 kV, 10 sec at 1×, 3× and 3× magnification, respectively). Bone measurements were performed on the radiographic images of all animals in a blinded fashion using the software Image Processing and Analysis in Java (ImageJ).
Bone samples were cleaned of excess tissue (not scraped) and fixed. Length of femur and tibia was measured using a caliper.

[1] = Active NC2st concentration in serum of treated Fgfr3^369/+ mice (cGMP assay); assay type: in vivo; settings: 13-18 hours after the last dose
Description: At necropsy (Day 64), blood samples were collected by cardiac puncture under isoflurane anesthesia 13-18 hours after the last dose. Blood samples were collected into Microvette 500Z/gel tube (Sarstedt, serum/gel clotting activator, #20.1344), incubated at room temperature for 30 to 60 minutes and centrifuged at 10,000×g for five minutes at 2-8° C. 100 μl of serum was then transferred into 0.5 mL tubes (Sarstedt, #72.699), and the remainder was transferred in a second tube. The two tubes were frozen in liquid nitrogen and stored at −80° C. until analysis.

NPR-B = biological target: T1, NPR-B (Homo sapiens, UniProt P20594); assay: Whole cell guanylyl cyclase (cGMP) assay, NPR-B; assay type: cell-based; design: expressed in transfected cells
T1 sequence (P20594 23-1047): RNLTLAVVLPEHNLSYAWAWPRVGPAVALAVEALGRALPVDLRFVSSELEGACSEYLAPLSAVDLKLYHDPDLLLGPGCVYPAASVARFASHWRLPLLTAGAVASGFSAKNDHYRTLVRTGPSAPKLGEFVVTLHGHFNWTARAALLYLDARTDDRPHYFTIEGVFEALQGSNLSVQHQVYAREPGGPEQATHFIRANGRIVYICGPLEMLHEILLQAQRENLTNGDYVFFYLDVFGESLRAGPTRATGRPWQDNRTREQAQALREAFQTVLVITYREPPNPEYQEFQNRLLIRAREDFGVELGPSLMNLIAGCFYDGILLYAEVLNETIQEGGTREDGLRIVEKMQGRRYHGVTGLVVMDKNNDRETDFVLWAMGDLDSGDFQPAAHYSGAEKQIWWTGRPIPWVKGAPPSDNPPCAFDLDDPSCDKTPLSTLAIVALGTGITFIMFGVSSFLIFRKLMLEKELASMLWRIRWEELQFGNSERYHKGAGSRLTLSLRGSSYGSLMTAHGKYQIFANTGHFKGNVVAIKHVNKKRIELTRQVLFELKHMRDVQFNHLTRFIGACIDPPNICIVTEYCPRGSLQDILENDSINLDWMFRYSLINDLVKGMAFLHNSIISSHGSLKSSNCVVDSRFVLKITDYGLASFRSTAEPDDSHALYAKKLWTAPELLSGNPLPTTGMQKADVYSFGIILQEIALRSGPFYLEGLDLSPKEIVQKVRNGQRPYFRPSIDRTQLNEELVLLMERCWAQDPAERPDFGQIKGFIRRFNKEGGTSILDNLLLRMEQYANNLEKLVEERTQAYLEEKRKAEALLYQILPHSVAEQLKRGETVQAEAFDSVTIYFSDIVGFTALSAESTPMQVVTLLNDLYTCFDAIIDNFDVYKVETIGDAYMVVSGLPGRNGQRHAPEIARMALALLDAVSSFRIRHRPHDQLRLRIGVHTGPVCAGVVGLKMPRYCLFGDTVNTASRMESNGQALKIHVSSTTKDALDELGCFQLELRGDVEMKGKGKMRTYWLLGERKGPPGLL
Procedure, shortened: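 HEK293S cells, transiently transfected or stably expressing human NPR-B, treated in triplicate with increasing test-protein concentrations in serum-free DMEM with 1 mM IBMX and 0.5% BSA, 37° C, 30 min to one hour; CNP as reference. Lysate cGMP measured by Catchpoint kit; four-parameter logistic fit of dose-response curves.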

[2] = Tx-100: 100 mg/kg SC twice daily
[3] = NPR-B whole cell assay (FIG. 21C)
[4] = projected from relative activities of CNP22 and NC2st in NPR-B whole cell assays

efficacy relative to CNP (NPR-B; [3]): 84%
potency relative to CNP (times less than that of CNP) (NPR-B; [3]): 83 times
projected targeted NC2st concentration to achieve 50% reversal of ACH phenotype (NPR-B; [4]): 345 (±95 S.D.) nM
projected targeted NC2st concentration to achieve >100% reversal of ACH phenotype (NPR-B; [4]): 1214 (±446 S.D.) nM
Substance: NC2st: Fc-CNP fusion: Strep-tag II, TEV site, human IgG-1 Fc, 16-amino acid glycine-rich linker, CNP22; SEQ ID NO: 502
Cervical vertebrae length, % change vs Vehicle (Fgfr3^369/+ mice; Tx-10: 10 mg/kg SC twice daily): +17.6%*
Femur length, % change vs Vehicle (Fgfr3^369/+ mice; Tx-10: 10 mg/kg SC twice daily): +3.85%*
Lumbar vertebrae length, % change vs Vehicle (Fgfr3^369/+ mice; Tx-10: 10 mg/kg SC twice daily): +8.64%*
Naso-anal length, % change vs Vehicle (Fgfr3^369/+ mice; Tx-10: 10 mg/kg SC twice daily): +8.99%*
Neck-anal length, % change vs Vehicle (Fgfr3^369/+ mice; Tx-10: 10 mg/kg SC twice daily): +12.4%*
Occipital-front distance, % change vs Vehicle (Fgfr3^369/+ mice; Tx-10: 10 mg/kg SC twice daily): +0.89%
Skull Circularity index, % change vs Vehicle (Fgfr3^369/+ mice; Tx-10: 10 mg/kg SC twice daily): −1.52%
Sternum length, % change vs Vehicle (Fgfr3^369/+ mice; Tx-10: 10 mg/kg SC twice daily): +6.67%*
Tail length, % change vs Vehicle (Fgfr3^369/+ mice; Tx-10: 10 mg/kg SC twice daily): +7.38%*
Thoracic vertebrae length, % change vs Vehicle (Fgfr3^369/+ mice; Tx-10: 10 mg/kg SC twice daily): +11.6%*
Tibia length, % change vs Vehicle (Fgfr3^369/+ mice; Tx-10: 10 mg/kg SC twice daily): +6.50%*
Total CTL vertebrae length, % change vs Vehicle (Fgfr3^369/+ mice; Tx-10: 10 mg/kg SC twice daily): +11.6%*
Cervical vertebrae length, % change vs Vehicle (Fgfr3^369/+ mice; [2]): +24.3%*
Femur length, % change vs Vehicle (Fgfr3^369/+ mice; [2]): +3.85%*
Lumbar vertebrae length, % change vs Vehicle (Fgfr3^369/+ mice; [2]): +13.6%*
Naso-anal length, % change vs Vehicle (Fgfr3^369/+ mice; [2]): +14.3%*
Neck-anal length, % change vs Vehicle (Fgfr3^369/+ mice; [2]): +21.1%*
Occipital-front distance, % change vs Vehicle (Fgfr3^369/+ mice; [2]): +0.76%
Skull Circularity index, % change vs Vehicle (Fgfr3^369/+ mice; [2]): −2.88%*
Sternum length, % change vs Vehicle (Fgfr3^369/+ mice; [2]): +13.7%*
Tail length, % change vs Vehicle (Fgfr3^369/+ mice; [2]): +7.22%*
Thoracic vertebrae length, % change vs Vehicle (Fgfr3^369/+ mice; [2]): +25.3%*
Tibia length, % change vs Vehicle (Fgfr3^369/+ mice; [2]): +8.13%*
Total CTL vertebrae length, % change vs Vehicle (Fgfr3^369/+ mice; [2]): +20.9%*
mean NC2st blood serum level (active concentration) ([1]; Tx10 group): above the projected threshold for 50% reversal of the ACH phenotype
mean NC2st blood serum level (active concentration) ([1]; Tx100 group): nearly three-fold above the projected threshold for 100% reversal
